Common to all, as to assay type: in vivo, rat
The test system of test [1] is Parkinson's disease. In words: Open field test in rats with reserpine-induced Parkinson's disease. To be noted: 25 mg/kg, p.o. + Reserpine (4 mg/kg, s.c.); open field; Mean ± SEM, n = 6. The source says: (§1) The induction of Parkinson's disease and measurement of other parameters were done as per the reported protocol (Santos et al., Cognitive, motor and tyrosine hydroxylase temporal impairment in a model of parkinsonism induced by reserpine. Behav Brain Res. 2013; 253:68-77 and Shishehbore et al. A novel kinetic spectrophotometric method for the determination of dopamine in biological and pharmaceutical samples. J Chem. 2013; 2013:1-6). Induction of Parkinson's disease was done by administering Resperine, which inhibits the monoamine vesicular transporters, thus decreasing the levels of monoamine neurotransmitters in the brain. Following pretreatment for 14 days with Gingerenone A, the rat groups received subcutaneous injections of reserpine (4 mg/kg) for the final five days of the treatment regimen. Resperine (5 mg) was dissolved in 1 ml of 1% acetic acid and then diluted tenfold with distilled water to achieve a final concentration of 500 μg/ml. The normal control group received saline with 1% acetic acid […], administered from day 10 to day 14. Thirty minutes following the administration of reserpine on the 14th day, behavioural assessments were conducted using the Open Field test, Y Maze, and Catalepsy tests to evaluate changes. Rats administered with Carbidopa, a known drug for the management of Parkinson's disease was also used for comparison. Upon completion of the study, brains were harvested for biochemical analyses and histopathological studies. The experimental group is depicted in table 10.
Open filed test—The test was conducted as per protocol described by Saleem et al., Pharmacological Potential of the Standardized Methanolic Extract of Prunus armeniaca L. in the Haloperidol-Induced Parkinsonism Rat Model. Evid Based Complement Alternat Med. 2022:29; 3697522. doi: 10.1155/2022/3697522. This test was conducted to assess the locomotor and exploratory behaviors of the experimental rats. A square-shaped wooden box measuring 100 cm in width, 100 cm in […], and 45 cm in height was constructed using plywood material, painted white, with a black-lined floor divided into 25 blocks. The rats were placed in the center of the field for a duration of 5 minutes and allowed to explore the box freely. The number of squares crossed, both centrally and horizontally, along with the total number of crossings, instances of defecation, freezing behavior, and postures were recorded during this period. Normal animals readily and quickly acclimate to the chamber and try to explore the center area of the squares.

For test [2], the system named is Parkinson's disease. In words: Y-maze test in rats with reserpine-induced Parkinson's disease. Particulars: 25 mg/kg, p.o. + Reserpine (4 mg/kg, s.c.); Y maze; Mean ± SEM, n = 6.
Description: as §1
Y-maze test—In the Y-maze test, spontaneous alterations serve as an indicator of working short-term memory.
The maze consisted of a triangular central area with three equilateral arms labeled A, B, and C, each measuring 35 cm in length, 25 cm in height, and 10 cm in width. During the test, each rat was placed in the central area, facing one of the arms. An entry was scored when all four paws of the rat entered an arm. Spontaneous alterations in behavior were defined as consecutive entries into different arms (e.g., ABC, BCA, or CAB, but not CAC). The maximum number of spontaneous alterations ([…]) and the percentage of spontaneous alterations (actual number of alterations divided by the maximum alterations, multiplied by 100) were calculated for each rat (Kraeuter et al., The Y-Maze for Assessment of Spatial Working and Reference Memory in Mice. Methods Mol Biol. 2019; 1916:105-111).

Test [3] deals with Parkinson's disease. In words: Catalepsy test in rats with reserpine-induced Parkinson's disease. Also noted: catalepsy score at 30 min / catalepsy score at 60 min / catalepsy score at 120 min: unit not given here. To be noted: 25 mg/kg, p.o. + Reserpine (4 mg/kg, s.c.), Mean ± SEM, n = 6.
Description: as §1
NeuroMol Med. 202022(2):314-330. Catalepsy in rats' manifests as an unresponsiveness to external stimuli accompanied by muscle rigidity. During the catalepsy test, rats were positioned on a wooden bar elevated 3-9 cm above the surface, with their forelimbs resting on it after administration of reserpine. The time taken for the rats to correct their posture was recorded as an indicator of catalepsy. Catalepsy ceased either when the rats climbed up the bar or when their forelimbs touched the floor. Observations were made at 30, 60, and 120 minutes after administration. All assessments were conducted in a quiet environment at a temperature of 23-25 degrees Celsius, with a maximum observation time of 5 minutes per trial.

Test [4] concerns Alzheimer's disease. In words: Elevated plus maze (EPM) test in rats with AlCl3-induced Alzheimer's disease. Particulars: 5 mg/kg, p.o. + AlCl3 (100 mg/kg, i.p.), Mean ± SEM, n = 6. The protocol:
Elevated plus maze (EPM)—Elevated plus maze (EPM)—This test was performed as per reported protocol (Bhuvanendran et al., Amelioration of cognitive deficit by Embelin in a Scopolamine-induced Alzheimer's disease-like condition in a rat model. Front Pharmacol. 2018:9(6):1-12 and Biradar et al., (2020) Experimental validation and network pharmacology evaluation to decipher the mechanism of action of Erythrina variegata L. bark against scopolamine-induced memory impairment in rats. Adv Tradit Med. 2020:26:1-4). EPM contains 2 closed and 2 open arms (four arms; equal dimensions of 50×10 cm). These 4 arms connect at central with a 10×10 cm square gap as an initial point. The transfer latency (TL) was recorded via stopwatch by keeping rats independently toward one side of the open arm. The EPM TL cut-off was set to 60 s throughout the study. […] Index of memory improvement is measured as a drop of transfer Latency (TL) by test drug.
The elevated plus maze is a test that is widely used to assess the anti-anxiety effects of test substances. As the test measures open arm activity, an increase in open arm activity (duration and/or entries) reflects anti-anxiety behaviour (Walf et al., The use of the elevated plus maze as an assay of anxiety-related behavior in rodents, Nat Protoc. 2007; 2(2): 322-328). In the present study, inducing Alzheimer's in the animals increased their anxiety which was reduced by the administration on Gingerenone A (Table 3).

Test [5] concerns Alzheimer's disease. In words: Morris water maze (MWM) test in rats with AlCl3-induced Alzheimer's disease. Particulars: 5 mg/kg, p.o. + AlCl3 (100 mg/kg, i.p.); MWM at 17th day; Mean ± SEM, n = 6. The protocol:
Morris water maze (MWM)—This test was performed as per protocol established by Ishola et al., Protective role of Spondiasmombin leaf and Cola acuminata seed extracts against scopolamine-induced cognitive dysfunction. Alexandria J Med. 2018; 54(1):27-39. MWM is a round water tank “diameter: 110 cm and height: 60 cm” consisting of a white surface and that is filled using opaque water (Temp. 26±2° C.) to a distance (depth) of 30 cm. The MWM tank circle is divided into 4 equal quadrants [North Quadrant 1, East Quadrant 2, West Quadrant 3, and South Quadrant 4]. Further, it consists of a 10 cm diameter platform in a constant position. Index of memory improvement is measured by the Escape Latency Time (ELT)—which is the time the animal takes to find the platform.
The MWM plays an important role in the testing of learning and memory in rodent models of Alzheimer's Disease. It is used to test hippocampal-dependent learning, including acquisition of spatial memory and long-term spatial memory (Bromley-Brits et al., Morris water maze test for learning and memory deficits in Alzheimer's disease model mice, J Vis Exp., 2011 Jul. 20:(53):2920). In this study, learning was impaired in the Alzheimer's group.

Test [6] deals with β-amyloid (1-42). In words: β-amyloid (1-42) level in plasma (ELISA), AlCl3 Alzheimer's model. Particulars: 5 mg/kg, p.o. + AlCl3 (100 mg/kg, i.p.); plasma; Mean ± SEM, n = 6. From the text: (§2) The levels of Tau, β-amyloid (1-42) and Apolipoprotein E were estimated. using ELISA kit (Krishgen Biosystems, India). All the protein biomarkers of AD were elevated in the AD control group.
In general terms: ELISA stands for enzyme-linked immunosorbent assay.

In test [7] the test system is Apolipoprotein E. In words: Apolipoprotein E level in plasma (ELISA), AlCl3 Alzheimer's model. To be noted: 5 mg/kg, p.o. + AlCl3 (100 mg/kg, i.p.); plasma; Mean ± SEM, n = 6.
Description: as §2

For test [8], the system named is Fibrinogen. As to the kind of experiment: Inflammatory marker fibrinogen (ELISA), AlCl3 Alzheimer's model. Particulars: 5 mg/kg, p.o. + AlCl3 (100 mg/kg, i.p.); Mean ± SEM, n = 6. The source says: (§3) The inflammatory markers Fibrinogen, IL-1β were estimated using ELISA kit (Krishgen Biosystems, India).
Test [9] deals with IL-1β. In words: Inflammatory marker IL-1β (ELISA), AlCl3 Alzheimer's model. To be noted: 5 mg/kg, p.o. + AlCl3 (100 mg/kg, i.p.); n = 6.
Description: as §3

The text below walks through data of patent US20260325464A1, “COMPOSITIONS FOR MODULATING THE EXPRESSION OF AQUAPORINS IN NEURODEGENERATIVE DISORDERS” (priority 2023, published 2026).

Marks after values point to notes of the source that are not given here.

In the case of `C[C@@](Cc1ccc(O)c(O)c1)(NN)C(=O)O` [Carbidopa, reference compound], in [1], the Freezing was determined as 9.63 ± 0.60 s, the “Number of central explorations” value is listed as 20.25 ± 1.03 and the “Number of squares crossed” value was determined as 31.80 ± 3.18. Besides, in test [2], the “No of arm entries” value was found to be 12.58 ± 1.04 and the “Spontaneous alterations (%)” value is 27.31 ± 1.56 %. In addition, the “catalepsy score at 30 min” value in test [3] (30 min) is 1.52 ± 0.42. The “catalepsy score at 60 min” value in [3] (60 min) is listed as 1.60 ± 0.70. Also, in test [3] (120 min), the “catalepsy score at 120 min” value is 1.45 ± 0.70.

For the molecule `COc1cc2c(cc1OC)C(=O)C(CC1CCN(Cc3ccccc3)CC1)C2` (stereo not drawn) [Donepezil, reference compound], the “EPM at 16th day Transfer Latency” value in test [4] (16th day) was found to be 18.57 ± 0.68 s. Also, in test [4] (17th day), the “EPM at 17th day Transfer Latency” value was 18.22 ± 0.92 s. Further, the “Escape Latency Time” value in test [5] came to 26.96 ± 2.58 s. The β-amyloid in test [6] is 8.02 ± 0.043 pg/mL. For the same molecule, in [7], the “Apolipoprotein E” value is 6.96 ± 0.065 ng/mL. Also, the Fibrinogen in [8] came to 16.77 ± 0.053 ng/mL. For the same molecule, the IL-1β in [9] is listed as 62.16** pg/ml.
